Assay results reported in PubChem BioAssay AID2060513 (Molecular Pharmacology Branch, DTP, NCI, 2025).
pIC50: −log10 of the molar value. Blank lines part the entries; values can stand above or below the compound they belong to.

Tested on: 299254-011-R-J1-PDC complex spheroids viability
Test: Anticancer human tumor 299254-011-R-J1-PDC patient-derived melanoma cell line growth inhibition [GQUAD]
Conditions: for pIC50: curve of first compound; for viability, T/C: stronger effect = lower value
How it was run: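 Multi-cell-type spheroids of tumor cells with HUVEC and mesenchymal stem cells, treated with drug combinations. Concentrations descend in half-log steps from near clinical Cmax, or from 10 microM where Cmax is unknown; viability read-out.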

[1] = second compound 0.0316 µM, first compound 0.0316 µM
[2] = second compound 0.0316 µM, first compound 0.1 µM
[3] = second compound 0.0316 µM, first compound 0.316 µM
[4] = second compound 0.0316 µM, first compound 1 µM
[5] = second compound 0.0316 µM, first compound 3.16 µM
[6] = second compound 0.0316 µM, first compound 10 µM
[7] = second compound 0.1 µM, first compound 0.0316 µM
[8] = second compound 0.1 µM, first compound 0.1 µM
[9] = second compound 0.1 µM, first compound 0.316 µM
[10] = second compound 0.1 µM, first compound 1 µM
[11] = second compound 0.1 µM, first compound 3.16 µM
[12] = second compound 0.1 µM, first compound 10 µM
[13] = second compound 0.316 µM, first compound 0.0316 µM
[14] = second compound 0.316 µM, first compound 0.1 µM
[15] = second compound 0.316 µM, first compound 0.316 µM
[16] = second compound 0.316 µM, first compound 1 µM
[17] = second compound 0.316 µM, first compound 3.16 µM
[18] = second compound 0.316 µM, first compound 10 µM
[19] = second compound 1 µM, first compound 0.0316 µM
[20] = second compound 1 µM, first compound 0.1 µM
[21] = second compound 1 µM, first compound 0.316 µM
[22] = second compound 1 µM, first compound 1 µM
[23] = second compound 1 µM, first compound 3.16 µM
[24] = second compound 1 µM, first compound 10 µM
[25] = second compound 3.16 µM, first compound 0.0316 µM
[26] = second compound 3.16 µM, first compound 0.1 µM
[27] = second compound 3.16 µM, first compound 0.316 µM
[28] = second compound 3.16 µM, first compound 1 µM
[29] = second compound 3.16 µM, first compound 3.16 µM
[30] = second compound 3.16 µM, first compound 10 µM
[31] = second compound 10 µM, first compound 0.0316 µM
[32] = second compound 10 µM, first compound 0.1 µM
[33] = second compound 10 µM, first compound 0.316 µM
[34] = second compound 10 µM, first compound 1 µM
[35] = second compound 10 µM, first compound 3.16 µM
[36] = second compound 10 µM, first compound 10 µM
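Note: spheroids exposed to the agents for seven days before readout.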
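Throughout, for viability, T/C: percent viability relative to DMSO vehicle control wells = 100%.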

pIC50 (second compound 0.0316 µM): 6.39
pIC50 (second compound 0.1 µM): 6.61
pIC50 (second compound 0.316 µM): 6.56
pIC50 (second compound 1 µM): 6.77
pIC50 (second compound 3.16 µM): 6.69
pIC50 (second compound 10 µM): > 7.50
SMILES: CC(=O)O[C@H]1C(=O)[C@@]2(C)[C@H]([C@H](OC(=O)c3ccccc3)[C@]3(O)C[C@H](OC(=O)[C@H](O)[C@@H](NC(=O)c4ccccc4)c4ccccc4)C(C)=C1C3(C)C)[C@]1(OC(C)=O)CO[C@@H]1C[C@@H]2O + Cc1cnc(CNC(=O)c2c(=O)c3ccc(N4CCCN(C)CC4)nc3n3c2sc2ccccc23)cn1
viability, T/C [1]: 90%
viability, T/C [2]: 77.5%
viability, T/C [3]: 58.8%
viability, T/C [4]: 23.7%
viability, T/C [5]: 26.8%
viability, T/C [6]: 23%
viability, T/C [7]: 114%
viability, T/C [8]: 89.2%
viability, T/C [9]: 38.1%
viability, T/C [10]: 29.3%
viability, T/C [11]: 29.1%
viability, T/C [12]: 23.3%
viability, T/C [13]: 94.4%
viability, T/C [14]: 75.1%
viability, T/C [15]: 44.9%
viability, T/C [16]: 32.1%
viability, T/C [17]: 24.1%
viability, T/C [18]: 22.7%
viability, T/C [19]: 67.6%
viability, T/C [20]: 62.8%
viability, T/C [21]: 34.6%
viability, T/C [22]: 30.8%
viability, T/C [23]: 24.9%
viability, T/C [24]: 27.1%
viability, T/C [25]: 57.7%
viability, T/C [26]: 58%
viability, T/C [27]: 43.6%
viability, T/C [28]: 39.8%
viability, T/C [29]: 25.6%
viability, T/C [30]: 29.2%
viability, T/C [31]: 0.42%
viability, T/C [32]: 0.39%
viability, T/C [33]: 0.41%
viability, T/C [34]: 0.35%
viability, T/C [35]: 0.4%
viability, T/C [36]: 0.34%

SMILES: CCCS(=O)(=O)Nc1ccc(F)c(C(=O)c2c[nH]c3ncc(-c4ccc(Cl)cc4)cc23)c1F + Cc1[nH]c2ccc(F)cc2c1-c1nc2c3cccnc3c3ncccc3c2[nH]1
pIC50 (second compound 0.0316 µM): 5.07
pIC50 (second compound 0.1 µM): 5.07
pIC50 (second compound 0.316 µM): 5.09
pIC50 (second compound 1 µM): 5.14
pIC50 (second compound 3.16 µM): 5.11
pIC50 (second compound 10 µM): 5.13
viability, T/C [1]: 91.6%
viability, T/C [2]: 109%
viability, T/C [3]: 109%
viability, T/C [4]: 88.3%
viability, T/C [5]: 76.8%
viability, T/C [6]: 45.4%
viability, T/C [7]: 98.6%
viability, T/C [8]: 110%
viability, T/C [9]: 100%
viability, T/C [10]: 82.7%
viability, T/C [11]: 105%
viability, T/C [12]: 41.9%
viability, T/C [13]: 86.6%
viability, T/C [14]: 123%
viability, T/C [15]: 110%
viability, T/C [16]: 108%
viability, T/C [17]: 90.7%
viability, T/C [18]: 40.4%
viability, T/C [19]: 94.8%
viability, T/C [20]: 103%
viability, T/C [21]: 84.1%
viability, T/C [22]: 107%
viability, T/C [23]: 79.7%
viability, T/C [24]: 38.6%
viability, T/C [25]: 91.4%
viability, T/C [26]: 109%
viability, T/C [27]: 92.3%
viability, T/C [28]: 115%
viability, T/C [29]: 82.6%
viability, T/C [30]: 40.7%
viability, T/C [31]: 81.3%
viability, T/C [32]: 108%
viability, T/C [33]: 101%
viability, T/C [34]: 105%
viability, T/C [35]: 88.8%
viability, T/C [36]: 35.8%

pIC50 (second compound 0.0316 µM): < 5.00
pIC50 (second compound 0.1 µM): < 5.00
pIC50 (second compound 0.316 µM): < 5.00
pIC50 (second compound 1 µM): < 5.00
pIC50 (second compound 3.16 µM): < 5.00
pIC50 (second compound 10 µM): 7.50
SMILES: O=c1[nH]cc(F)c(=O)[nH]1 + Cc1cnc(CNC(=O)c2c(=O)c3ccc(N4CCCN(C)CC4)nc3n3c2sc2ccccc23)cn1
viability, T/C [1]: 90.9%
viability, T/C [2]: 86%
viability, T/C [3]: 110%
viability, T/C [4]: 84.3%
viability, T/C [5]: 106%
viability, T/C [6]: 106%
viability, T/C [7]: 92.8%
viability, T/C [8]: 92.1%
viability, T/C [9]: 105%
viability, T/C [10]: 88.1%
viability, T/C [11]: 99.1%
viability, T/C [12]: 98.5%
viability, T/C [13]: 83.7%
viability, T/C [14]: 123%
viability, T/C [15]: 99.4%
viability, T/C [16]: 88.5%
viability, T/C [17]: 89.8%
viability, T/C [18]: 105%
viability, T/C [19]: 86.9%
viability, T/C [20]: 78%
viability, T/C [21]: 74.8%
viability, T/C [22]: 92.4%
viability, T/C [23]: 94.5%
viability, T/C [24]: 91.3%
viability, T/C [25]: 96%
viability, T/C [26]: 76%
viability, T/C [27]: 82.5%
viability, T/C [28]: 84.2%
viability, T/C [29]: 95.2%
viability, T/C [30]: 91.3%
viability, T/C [31]: 58.7%
viability, T/C [32]: 16.9%
viability, T/C [33]: 57.7%
viability, T/C [34]: 65.6%
viability, T/C [35]: 55.4%
viability, T/C [36]: 2.68%

SMILES: Cc1cccc(N(C)C(=O)C2C(O)CCN2c2nc(C)cc(C(F)(F)F)c2C#N)c1 (stereo not drawn) + CN(C)c1ccc(Nc2c3ccc(NC(=O)CCN4CCCC4)cc3nc3cc(NC(=O)CCN4CCCC4)ccc23)cc1
pIC50 (second compound 0.0316 µM): < 5.00
pIC50 (second compound 0.1 µM): < 5.00
pIC50 (second compound 0.316 µM): < 5.00
pIC50 (second compound 1 µM): < 5.00
pIC50 (second compound 3.16 µM): < 5.00
pIC50 (second compound 10 µM): < 5.00
viability, T/C [1]: 118%
viability, T/C [2]: 96.8%
viability, T/C [3]: 84.9%
viability, T/C [4]: 80.5%
viability, T/C [5]: 99.2%
viability, T/C [6]: 86%
viability, T/C [7]: 116%
viability, T/C [8]: 84.9%
viability, T/C [9]: 89.2%
viability, T/C [10]: 83.4%
viability, T/C [11]: 90.4%
viability, T/C [12]: 81.5%
viability, T/C [13]: 103%
viability, T/C [14]: 100%
viability, T/C [15]: 90.5%
viability, T/C [16]: 103%
viability, T/C [17]: 95.6%
viability, T/C [18]: 103%
viability, T/C [19]: 94.9%
viability, T/C [20]: 105%
viability, T/C [21]: 99.5%
viability, T/C [22]: 100%
viability, T/C [23]: 105%
viability, T/C [24]: 81.3%
viability, T/C [25]: 108%
viability, T/C [26]: 99.6%
viability, T/C [27]: 98.6%
viability, T/C [28]: 108%
viability, T/C [29]: 84.1%
viability, T/C [30]: 80.4%
viability, T/C [31]: 102%
viability, T/C [32]: 79.4%
viability, T/C [33]: 98.7%
viability, T/C [34]: 110%
viability, T/C [35]: 77.4%
viability, T/C [36]: 67.6%
